Source: patent publication US20020128256A1, “Methods for the treatment or prevention of inflammatory diseases characterized by abnormal cell proliferation” (priority 1997, published 2002)
pIC50: −log10 of the molar value.

Columns and labels:
[1] = molecular target: T1, Gardos channel (Homo sapiens, UniProt O15554); set-up: host or cells: sickle erythrocytes (printed for Clotrimazole only); details: in vitro, sickle erythrocytes; cited from earlier work
[2] = tested on: NIH 3T3 mouse fibroblast cells; experiment: Mitogenic Assay (mitogen-induced cell proliferation); assay type: cell-based
[3] = molecular target: T2, red cell Gardos channel (Mus musculus, UniProt O89109); details: oral administration; cited from earlier work
T2 construct: host or cells: red cells of SAD mouse
T2 sequence (O89109 whole entry): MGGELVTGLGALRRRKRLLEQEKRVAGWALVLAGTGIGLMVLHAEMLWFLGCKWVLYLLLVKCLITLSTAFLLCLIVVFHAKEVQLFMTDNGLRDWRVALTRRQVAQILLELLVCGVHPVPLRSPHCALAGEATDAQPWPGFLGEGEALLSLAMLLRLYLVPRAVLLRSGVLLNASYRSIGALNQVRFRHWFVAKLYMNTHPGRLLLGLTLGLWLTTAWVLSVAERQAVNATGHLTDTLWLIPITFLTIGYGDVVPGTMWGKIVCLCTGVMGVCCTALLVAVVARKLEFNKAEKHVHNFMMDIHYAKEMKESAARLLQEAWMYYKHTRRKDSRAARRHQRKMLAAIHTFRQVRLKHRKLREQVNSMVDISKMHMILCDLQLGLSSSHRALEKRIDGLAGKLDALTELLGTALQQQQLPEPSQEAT

[4] = molecular target: T3, Gardos channel of erythrocytes (Homo sapiens, UniProt O15554); experiment: Gardos Channel Assay; assay type: cell-based
T3 construct: endogenous in cells; host or cells: erythrocytes
T3 sequence (O15554 whole entry): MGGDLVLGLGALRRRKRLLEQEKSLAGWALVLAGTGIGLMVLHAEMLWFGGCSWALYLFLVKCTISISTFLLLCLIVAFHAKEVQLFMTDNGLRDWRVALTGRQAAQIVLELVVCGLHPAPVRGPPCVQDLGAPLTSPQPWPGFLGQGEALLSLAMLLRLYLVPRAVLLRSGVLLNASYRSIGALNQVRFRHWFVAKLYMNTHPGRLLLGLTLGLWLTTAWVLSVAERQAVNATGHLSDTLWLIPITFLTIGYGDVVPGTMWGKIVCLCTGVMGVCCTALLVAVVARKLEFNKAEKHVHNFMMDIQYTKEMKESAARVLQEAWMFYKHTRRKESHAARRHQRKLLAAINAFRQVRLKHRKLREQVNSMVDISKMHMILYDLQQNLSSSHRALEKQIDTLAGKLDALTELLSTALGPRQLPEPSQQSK

[5] = molecular target: T1, Gardos channel; set-up: reduces erythrocyte dehydration in patients with sickle cell disease; host or cells: erythrocytes of patients; details: oral therapy; cited from earlier work
[6] = tested on: normal and cancer cell lines; details: cited from earlier work
[7] = tested on: MM-RU human melanoma cells; details: SCID mice, daily administration; cited from earlier work
[8] = tested on: U118MG; experiment: SRB antiproliferative assay, U118MG; assay type: cell-based; details: U118MG (CNS); 5% FCS, 5 Day Incubation; read-out: SRB assay IC50
Protocol: (§1) The antiproliferative assays described herein were performed using standard aseptic procedures and universal precautions for the use of tissues. Cells were propagated using RPMI 1640 media (Gibco) containing 2% N 5% fetal calf serum (Biowhittaker) at 37° C., 5% CO2 and 95% humidity. The cells were passaged using Trypsin (Gibco). Prior to addition of test compound, the cells were harvested, the cell number counted and seeded at 10,000 cells/well in 100 μl 5% fetal calf serum (FCS) containing RPMI medium in 96-well plates and incubated overnight at 37° C., 5% CO2 and 95% humidity.
(§2) Following incubation, the cellular protein was determined with the ulforhodamine B (SRB) assay (Skehan P et al., 1990, J. Natl. Cancer Inst. 82:1107-1112).

[9] = tested on: HT29; experiment: SRB antiproliferative assay, HT29; assay type: cell-based; details: HT29 (Colon); 5% FCS, 5 Day Incubation; read-out: SRB assay IC50
Protocol: as §1, §2

[10] = tested on: HEPG2; experiment: SRB antiproliferative assay, HEPG2; assay type: cell-based; details: HEPG2 (Hepatocel); 5% FCS, 5 Day Incubation; read-out: SRB assay IC50
Protocol: as §1, §2

[11] = tested on: MMRU; experiment: SRB antiproliferative assay, MMRU; assay type: cell-based, human; details: MMRU (Melanoma); 5% FCS, 5 Day Incubation; read-out: SRB assay IC50
Protocol: Cells were propagated using RPMI 1640 media (Gibco) containing 2% N 5% fetal calf serum (Biowhittaker) at 37° C., 5% CO2 and 95% humidity. The cells were passaged using Trypsin (Gibco). Prior to addition of test compound, the cells were harvested, the cell number counted and seeded at 10,000 cells/well in 100 μl 5% fetal calf serum (FCS) containing RPMI medium in 96-well plates and incubated overnight at 37° C., 5% CO2 and 95% humidity.
as §2

[12] = tested on: DU-145; experiment: SRB antiproliferative assay, DU-145; assay type: cell-based; details: DU-145 (Prostate); 5% FCS, 5 Day Incubation; read-out: SRB assay IC50
Protocol: as §1, §2

[13] = tested on: MDA-MB-231; experiment: SRB antiproliferative assay, MDA-MB-231; assay type: cell-based; details: MDA-MB-23 (Breast); 5% FCS, 5 Day Incubation; read-out: SRB assay IC50
[14] = tested on: CaSki; experiment: SRB antiproliferative assay, CaSki; assay type: cell-based; details: CaSki (Cervical); 5% FCS, 5 Day Incubation; read-out: SRB assay IC50
Protocol: as §1, §2

[15] = tested on: SK-OV-3; experiment: SRB antiproliferative assay, SK-OV-3; assay type: cell-based; details: SK-OV-3 (Ovary); 5% FCS, 5 Day Incubation
Protocol: as §1, §2

[16] = tested on: HCT-15; experiment: SRB antiproliferative assay, HCT-15; assay type: cell-based; details: HCT-15 (Colon); 5% FCS, 5 Day Incubation; read-out: SRB assay IC50
Protocol: as §1, §2

[17] = tested on: L929; experiment: SRB assay, normal cells L929; assay type: cell-based, mouse; details: L929 (Normal mouse); 5% FCS, 5 Day Incubation; read-out: SRB assay IC50
Protocol: as §1, §2

[18] = tested on: HUVEC; experiment: SRB assay, normal cells HUVEC; assay type: cell-based, human; details: HUVEC (Normal human); 5% FCS, 5 Day Incubation; read-out: SRB assay IC50
Protocol: as §1, §2

[19] = tested on: HTB174; experiment: SRB antiproliferative assay, HTB174; assay type: cell-based; details: HTB174 (Lung); 5% FCS, 5 Day Incubation; read-out: SRB assay IC50
Protocol: as §1, §2

[20] = tested on: GM; experiment: SRB assay, normal cells GM; assay type: cell-based, human; details: GM (Normal human); 5% FCS, 5 Day Incubation; read-out: SRB assay IC50
Protocol: as §1, §2

[21] = tested on: HeLa; experiment: SRB antiproliferative assay, HeLa; assay type: cell-based; details: HeLa (Cervical); 5% FCS, 5 Day Incubation; read-out: SRB assay IC50
Protocol: as §1, §2

[22] = tested on: A549; experiment: SRB antiproliferative assay, A549; assay type: cell-based; details: A549 (Lung); 5% FCS, 5 Day Incubation; read-out: SRB assay IC50
Protocol: as §1, §2

[23] = tested on: 3T3; experiment: SRB assay, normal cells 3T3; assay type: cell-based, mouse; details: 3T3 (Normal mouse); 5% FCS, 5 Day Incubation; read-out: SRB assay IC50
Protocol: as §1, §2

[24] = tested on: MCF7; experiment: SRB antiproliferative assay, MCF7; assay type: cell-based; details: MCF7 (Breast); 5% FCS, 5 Day Incubation; read-out: SRB assay IC50
Protocol: as §1, §2

[25] = tested on: SK-MEL-28; experiment: SRB antiproliferative assay, SK-MEL-28; assay type: cell-based; details: SK-MEL-28 (Melanoma); 5% FCS, 5 Day Incubation; read-out: SRB assay IC50
Protocol: as §1, §2

[26] = tested on: ACHN; experiment: SRB antiproliferative assay, ACHN; assay type: cell-based; details: ACHN (Renal); 5% FCS, 5 Day Incubation; read-out: SRB assay IC50
Protocol: as §1, §2

T1 sequence (O15554 whole entry): as above

In the case of `Clc1ccccc1C(c1ccccc1)(c1ccccc1)n1ccnc1` [Clotrimazole], the “Ca2+-activated K+ transport and cell dehydration in sickle erythrocytes” value [1] is given as “blocks Ca^2+-activated K^+ transport and cell dehydration in sickle erythrocytes”, the inhibition at 10 µM ([2]; Mus musculus, NIH3T3, measured at 10 μM compound, NIH 3T3 cells, read-out: Mitogenic Assay Inhibition (%)) is given as 93% and the “Effect on red cells in SAD mouse” value [3] is given as “inhibition of the red cell Gardos channel, increased red cell K^+ content, a decreased mean cell hemoglobin concentration (MCHC) and decreased cell density”. For the same molecule, the inhibition at 10 µM ([4]; read-out: Gardos Channel Assay Inhibition (%)) was 99.3%, the “Effect in patients with sickle cell disease” value [5] was “induces inhibition of the Gardos channel and reduces erythrocyte dehydration” and the “Rate of cell proliferation in vitro” value [6] was “inhibits the rate of cell proliferation of normal and cancer cell lines in a reversible and dose-dependent manner”. For the same molecule, the “Number of lung metastases” value [7] was “significant reduction in the number of lung metastases”.

“6-Chloro-3,3-di(4′-chlorophenyl)-2-N-oxime-3,3-diphenylindane [Compound 11]” gave a pIC50 [8] of under 5.00, a pIC50 [9] of 5.17 and a pIC50 [10] of 5.24. The pIC50 [11] was 5.21, the pIC50 ([2]; NIH 3T3 mouse fibroblast cells, mitogen-induced proliferation, read-out: Mitogenic Assay IC50) was 5.47 and the “Mitogenic Assay Inhibition (%)” value ([2]; measured at 10 μM compound, NIH 3T3 cells) was 99.0%. The pIC50 [12] was under 5.00, the pIC50 [13] was under 5.00 and the pIC50 [14] was 5.15. The pIC50 [15] was under 5.00, the “Gardos Channel Assay Inhibition (%)” value ([4]; measured at 10 μM compound) was 50.0% and the pIC50 [16] was 5.18. The pIC50 [17] was 5.07, the pIC50 [18] was 5.19 and the pIC50 [19] was 5.23. For the same molecule, the pIC50 [20] was under 5.00, the pIC50 [21] was 5.29 and the pIC50 [22] was 5.06. The pIC50 [23] was under 5.00, the pIC50 [24] was 5.36 and the pIC50 [25] was 5.26. The pIC50 [26] was under 5.00.
